Source: patent US7704956B2, “Glutathione-based delivery system” (Industrial Technology Research Institute, priority 2005, dated 2010)

What was measured:
[1] = Pharmacokinetics of endomorphin-1 liposome (plasma, LC-MS/MS); format: in vivo, wistar mouse; settings: 7.5 mg/kg, after 2 hr
Procedure: The plasma concentration of endomorphin-1 of a wistar mouse was analyzed by LC-MS/MS to study the pharmacokinetics of the endomorphin-1 liposome. […] However, the endomorphin-1 liposomes of Examples 14 and 17 prolonged the retention time of the endomorphin-1 in plasma to 24 hr. Also, T1/2 was prolonged from 6 min. to 2.4 hr and 1.8 hr, respectively.

[2] = Serum stability test of met-enkephalin liposome in fetal bovine serum; format: in vitro ADME; settings: fetal bovine serum 1:1 (v/v), 37° C. water bath, 0, 1, 2 and 4 hours, gel filtration
Description: The 2 carriers provided by Example 5 and fetal bovine serum (FBS) were mixed with 1:1 (v/v) to form a solution.

| Compound | plasma concentration of endomorphin-1 [1] | residual concentration of met-enkephalin [2] [%] |
| --- | --- | --- |
| NC(=O)[C@H](Cc1ccccc1)NC(=O)[C@H](Cc1c[nH]c2ccccc12)NC(=O)[C@@H]1CCCN1C(=O)[C@@H](N)Cc1ccc(O)cc1 [endomorphin-1 solution, endomorphin-1] | no endomorphin-1 was detected |  |
| met-enkephalin [free met-enkephalin] |  | 2 |
